From patent publication US20160108008A1, “Substituted N-(Tetrazol-5-yl)- and N-(Triazol-5-yl)arylcarboxamide Compounds and Their Use as Herbicides” (BASF SE, priority 2013, published 2016)
Marks after values point to notes of the source that are not given here.

How the values were obtained:
Type in all cases: in vivo
Amaranthus retroflexus [1] = assay: greenhouse post-emergence treatment, AMARE; conditions: scale 0-100
Text: (§1) The culture containers used were plastic flowerpots containing loamy sand with approximately 3.0% of humus as the substrate. The seeds of the test plants were sown separately for each species.
(§2) For the post-emergence treatment, the test plants were first grown to a height of 3 to 15 cm, depending on the plant habit, and only then treated with the active ingredients which had been suspended or emulsified in water. For this purpose, the test plants were either sown directly and grown in the same containers, or they were first grown separately as seedlings and transplanted into the test containers a few days prior to treatment.
(§3) Depending on the species, the plants were kept at 10-25° C. or 20-35° C. The test period extended over 2 to 4 weeks. During this time, the plants were tended, and their response to the individual treatments was evaluated.
(§4) Evaluation was carried out using a scale from 0 to 100. 100 means no emergence of the plants, or complete destruction of at least the aerial moieties, and 0 means no damage, or normal course of growth. A good herbicidal activity is given at values of at least 70 and a very good herbicidal activity is given at values of at least 85.
(§5) The plants used in the greenhouse experiments belonged to the following species:
(§6) Following representative compounds of formula I according to Table 9 were used in post-emergence treatments in greenhouse experiments (values labeled with * result from pre-emergence experiments): […]

Chenopodium album = assay: greenhouse post-emergence treatment, CHEAL; conditions: scale 0-100
Text: as §1, §2, §3, §4, §5, §6

Abutilon theophrasti = assay: greenhouse pre-emergence treatment, ABUTH; conditions: pre-emergence (value labeled *), scale 0-100
Text: as §1
(§7) For the pre-emergence treatment, the active ingredients, which had been suspended or emulsified in water, were applied directly after sowing by means of finely distributing nozzles. The containers were irrigated gently to promote germination and growth and subsequently covered with transparent plastic hoods until the plants had rooted. This cover caused uniform germination of the test plants, unless this has been impaired by the active ingredients.
as §3, §4, §5, §6

Echinochloa crus-galli = assay: greenhouse post-emergence treatment, ECHCG; conditions: scale 0-100
Text: as §1, §2, §3, §4, §5, §6

Amaranthus retroflexus [2] = assay: greenhouse pre-emergence treatment, AMARE; conditions: pre-emergence (value labeled *), scale 0-100
Text: as §1, §7, §3, §4, §5, §6

SMILES	[%] damage to weed III (AMARE) (Amaranthus retroflexus [1]; 250 g/ha)	[%] damage to weed VI (CHEAL) (Chenopodium album; 250 g/ha)	[%] damage to weed VII (ECHCG) (Echinochloa crus-galli; 250 g/ha)	[%] damage to weed III (AMARE) (Amaranthus retroflexus [2]; 250 g/ha)	other results
COc1c(Cl)cc(F)c(C(=O)Nc2nnnn2C)c1Cl [compound 9]					[%] damage to weed III (AMARE) (Amaranthus retroflexus [1]; 196 g/ha): 100%; [%] damage to weed VI (CHEAL) (Chenopodium album; 196 g/ha): 100%; [%] damage to weed I (ABUTH) (Abutilon theophrasti; 196 g/ha): 100* %
CCOc1c(Cl)cc(F)c(C(=O)Nc2nnnn2C)c1Cl [compound 18]	85%	100%	98%		[%] damage to weed I (ABUTH) (Abutilon theophrasti; 250 g/ha): 100* %
CCOc1c(Cl)cc(F)c(C(=O)Nc2nnnn2CCOC)c1Cl [compound 19]	100%	100%	100%		[%] damage to weed I (ABUTH) (Abutilon theophrasti; 250 g/ha): 100* %
CCCSc1c(Cl)cc(F)c(C(=O)Nc2nnnn2C)c1Cl [compound 21]					[%] damage to weed III (AMARE) (Amaranthus retroflexus [1]; 243 g/ha): 100%; [%] damage to weed VI (CHEAL) (Chenopodium album; 243 g/ha): 100%; [%] damage to weed VII (ECHCG) (Echinochloa crus-galli; 243 g/ha): 100%; [%] damage to weed I (ABUTH) (Abutilon theophrasti; 243 g/ha): 100* %
CCCSc1c(Cl)cc(F)c(C(=O)Nc2ncnn2C)c1Cl [compound 22]	100: %	100%	100%	80* %	
CCC[S+]([O-])c1c(Cl)cc(F)c(C(=O)Nc2nnnn2C)c1Cl (stereo not drawn) [compound 23]	100; %	100%	98%	98* %	
CCCS(=O)(=O)c1c(Cl)cc(F)c(C(=O)Nc2nnnn2C)c1Cl [compound 24]	100; %	100%	100%	100* %	
CCCS(=O)(=O)c1c(Cl)cc(F)c(C(=O)Nc2ncnn2C)c1Cl [compound 26]					[%] damage to weed III (AMARE) (Amaranthus retroflexus [1]; 500 g/ha): 100; %; [%] damage to weed VI (CHEAL) (Chenopodium album; 500 g/ha): 100%; [%] damage to weed VII (ECHCG) (Echinochloa crus-galli; 500 g/ha): 98%; [%] damage to weed III (AMARE) (Amaranthus retroflexus [2]; 500 g/ha): 98* %
CCC[S+]([O-])c1c(Cl)cc(F)c(C(=O)Nc2ncnn2C)c1Cl (stereo not drawn) [compound 27]					[%] damage to weed III (AMARE) (Amaranthus retroflexus [1]; 244 g/ha): 100; %; [%] damage to weed VI (CHEAL) (Chenopodium album; 244 g/ha): 100%; [%] damage to weed VII (ECHCG) (Echinochloa crus-galli; 244 g/ha): 98%; [%] damage to weed III (AMARE) (Amaranthus retroflexus [2]; 244 g/ha): 85* %
CCn1nnnc1NC(=O)c1c(F)cc(Cl)c([S+](C)[O-])c1Cl (stereo not drawn) [compound 32]	100; %	100%	100%	100* %	
CCSc1c(Cl)cc(Cl)c(C(=O)Nc2nnnn2C)c1Cl [compound 41]	100; %	100%	100%	100* %	
CC[S+]([O-])c1c(Cl)cc(Cl)c(C(=O)Nc2nnnn2C)c1Cl (stereo not drawn) [compound 60]					[%] damage to weed III (AMARE) (Amaranthus retroflexus [1]; 500 g/ha): 100; %; [%] damage to weed VI (CHEAL) (Chenopodium album; 500 g/ha): 100%; [%] damage to weed VII (ECHCG) (Echinochloa crus-galli; 500 g/ha): 98%; [%] damage to weed III (AMARE) (Amaranthus retroflexus [2]; 500 g/ha): 100* %
CCSc1c(Cl)cc(F)c(C(=O)Nc2nnnn2CC)c1Cl [compound 64]					[%] damage to weed III (AMARE) (Amaranthus retroflexus [1]; 500 g/ha): 100; %; [%] damage to weed VI (CHEAL) (Chenopodium album; 500 g/ha): 100%; [%] damage to weed VII (ECHCG) (Echinochloa crus-galli; 500 g/ha): 100%; [%] damage to weed III (AMARE) (Amaranthus retroflexus [2]; 500 g/ha): 100* %
COCCOc1c(Cl)cc(F)c(C(=O)Nc2nnnn2CCOC)c1Cl [compound 68]	100; %	100%	100%	100* %	
COCCOc1c(Cl)cc(F)c(C(=O)Nc2nnnn2C)c1Cl [compound 70]	98%	100%	95%		[%] damage to weed I (ABUTH) (Abutilon theophrasti; 250 g/ha): 100* %
CCn1nnnc1NC(=O)c1c(F)cc(Cl)c(OCCOC)c1Cl [compound 71]	98%	100%	80%		[%] damage to weed I (ABUTH) (Abutilon theophrasti; 250 g/ha): 100* %
CCS(=O)(=O)c1c(Cl)cc(Cl)c(C(=O)Nc2nnnn2C)c1Cl [compound 73]	100; %	100%	100%	98* %	

SMILES	[%] damage to weed III (AMARE) (Amaranthus retroflexus [1]; 250 g/ha)	[%] damage to weed VI (CHEAL) (Chenopodium album; 250 g/ha)	[%] damage to weed VII (ECHCG) (Echinochloa crus-galli; 250 g/ha)	[%] damage to weed III (AMARE) (Amaranthus retroflexus [2]; 250 g/ha)	other results
COCCn1nnnc1NC(=O)c1c(F)cc(Cl)c([S+](C)[O-])c1Cl (stereo not drawn) [compound 74]					[%] damage to weed III (AMARE) (Amaranthus retroflexus [1]; 110 g/ha): 100%; [%] damage to weed VI (CHEAL) (Chenopodium album; 110 g/ha): 100%; [%] damage to weed VII (ECHCG) (Echinochloa crus-galli; 110 g/ha): 100%; [%] damage to weed I (ABUTH) (Abutilon theophrasti; 110 g/ha): 98* %
COCCn1nnnc1NC(=O)c1c(Cl)cc(Cl)c(SC)c1Cl [compound 75]	100; %	100%	100%	100* %	
CC[S+]([O-])c1c(Cl)cc(F)c(C(=O)Nc2nnnn2CCOC)c1Cl (stereo not drawn) [compound 77]					[%] damage to weed III (AMARE) (Amaranthus retroflexus [1]; 125 g/ha): 100; %; [%] damage to weed VI (CHEAL) (Chenopodium album; 125 g/ha): 100%; [%] damage to weed VII (ECHCG) (Echinochloa crus-galli; 125 g/ha): 100%; [%] damage to weed III (AMARE) (Amaranthus retroflexus [2]; 125 g/ha): 100* %
CCSc1c(Cl)cc(F)c(C(=O)Nc2nnnn2CCOC)c1Cl [compound 79]	100; %	100%	100%	100* %	
CSc1ccc(Cl)c(C(=O)Nc2nnnn2C)c1Cl [compound 82]	100; %	100%	98%	100* %	
COCCn1nnnc1NC(=O)c1c(Cl)ccc(SC)c1Cl [compound 83]	100; %	100%	100%	100* %	
COCCOc1ccc(Cl)c(C(=O)Nc2ncnn2C)c1Cl [compound 85]	100%	100%	85%		
CCSc1ccc(Cl)c(C(=O)Nc2ncnn2C)c1Cl [compound 87]	100; %	100%	98%	98* %	
CCSc1ccc(Cl)c(C(=O)Nc2nnnn2C)c1Cl [compound 88]		100%	100%		
COCCn1nnnc1NC(=O)c1c(F)cc(Cl)c(OCCC(F)(F)F)c1Cl [compound 89, 2,4-Dichloro-6-fluoro-N-[1-(2-methoxyethyl)tetrazol-5-yl]-3-(3,3,3-trifluoropropoxy)-benzamide]	100; %	100%	100%	100* %	
Cn1ncnc1NC(=O)c1c(F)cc(Cl)c(OCCC(F)(F)F)c1Cl [compound 90, 2,4-Dichloro-6-fluoro-N-(2-methyl-1,2,4-triazol-3-yl)-3-(3,3,3-trifluoropropoxy)benzamide]		100%	90%		
Cn1nnnc1NC(=O)c1c(F)cc(Cl)c(OCCC(F)(F)F)c1Cl [compound 91, 2,4-Dichloro-6-fluoro-N-(1-methyltetrazol-5-yl)-3-(3,3,3-trifluoropropoxy)benzamide]	100; %	100%	100%	100* %	
CCn1nnnc1NC(=O)c1c(F)cc(Cl)c(OCCC(F)(F)F)c1Cl [compound 92, 2,4-Dichloro-N-(1-ethyltetrazol-5-yl)-6-fluoro-3-(3,3,3-trifluoropropoxy)benzamide]	100; %	100%	100%	100* %	
CSc1c(F)cc(Cl)c(C(=O)Nc2nnnn2C)c1F [compound 95]	100; %	100%	100%	95* %	
CCSc1c(F)cc(Cl)c(C(=O)Nc2nnnn2C)c1F [compound 97]	100; %	100%	100%	100* %	
COCCn1nnnc1NC(=O)c1c(Cl)cc(F)c(SC)c1F [compound 99]	100; %	100%	100%	100* %	
Cn1ncnc1NC(=O)c1c(F)cc(Cl)c([S+](C)[O-])c1Cl (stereo not drawn) [cpd. 5]	100%	100%	98%		
